Measurements: patent US6867207B2, “IL-5 inhibiting 6-azauracil derivatives” (Janssen Pharmaceutica N.V., priority 1997, dated 2005)

Test system: IL-5 production
Experiment: In vitro inhibition of IL-5 production in human blood (phytohemagglutinin-stimulated whole blood, ELISA);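 also: values marked with an asterisk were tested at 10 µM and unmarked values at 1 µM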
Type: cell-based
Conditions: test dose 1×10^−6 M, 48 hours
How it was run: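 Heparinised blood from healthy male donors, diluted threefold in RPMI 1640, preincubated 60 min at 37° C with compound (0.02% DMSO vehicle), then stimulated with 2 μg/mL phytohemagglutinin for 48 h. Supernatant IL-5 measured by ELISA; percentage inhibition at 1×10^−6 M or 1×10^−5 M.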

Going from `O=c1cnn(-c2cc(Cl)c(C(c3ccc(Cl)cc3)c3csc(-c4ccccc4Cl)n3)c(Cl)c2)c(=O)[nH]1` (racemic) [Compound 367] to `Cc1ccccc1-c1csc(C(c2ccc(Cl)cc2)c2c(Cl)cc(-n3ncc(=O)[nH]c3=O)cc2Cl)n1` (racemic) [Comp 243], the “% inh. (percentage inhibition of IL-5 production)” value rises from 74% to 97%.

First: CC(c1ccc(Cl)cc1)(c1nc(-c2ccccc2)c(-c2ccccc2)s1)c1c(Cl)cc(-n2ncc(=O)[nH]c2=O)cc1Cl (racemic) [Comp 18]
Second: CC(c1ccc(Cl)cc1)(c1nnc(-c2ccccc2)o1)c1c(Cl)cc(-n2ncc(=O)[nH]c2=O)cc1Cl (racemic) [Compound 206]
The “% inh. (percentage inhibition of IL-5 production)” value of the first is higher: 88% for the first, 82% for the second.

Going from `O=c1cnn(-c2ccc(C(Sc3ccc(C(F)(F)F)cn3)c3ccc(Cl)cc3)c(Cl)c2)c(=O)[nH]1` (stereo not shown) [Compound 88] to `Nc1ccc(SC(c2ccc(Cl)cc2)c2ccc(-n3ncc(=O)[nH]c3=O)cc2Cl)cc1` (racemic) [Compound 59], the “% inh. (percentage inhibition of IL-5 production)” value rises from 26% to 76%.

First: COc1cc(-n2ncc(=O)[nH]c2=O)ccc1C(c1ccc(Cl)cc1)c1sc(C)nc1-c1ccccc1 (racemic) [Compound 153]
Second: Cc1nc(-c2ccccc2)c(C(c2ccc(Cl)cc2)c2ccc(-n3ncc(=O)[nH]c3=O)cc2Cl)s1 (racemic) [Compound 134]
The “% inh. (percentage inhibition of IL-5 production)” value of the first is lower: 72% for the first, 95% for the second.

Compared with `O=c1cnn(-c2cc(Cl)c(C(c3ccc(Cl)cc3)c3nc(-c4cc(F)ccc4F)cs3)c(Cl)c2)c(=O)[nH]1` (racemic) [Comp 290], `Cc1cccc(-c2csc(C(c3ccc(Cl)cc3)c3c(Cl)cc(-n4ncc(=O)[nH]c4=O)cc3Cl)n2)c1` (racemic) [Comp 22] is higher in “% inh. (percentage inhibition of IL-5 production)” value: 92% for the first, 93% for the second.

Compared with `O=c1cnn(-c2cc(Cl)c(C(c3ccc(Cl)cc3)c3nc(-c4ccco4)cs3)c(Cl)c2)c(=O)[nH]1` (racemic) [Comp 236], `Cc1ccsc1-c1nnc(C(c2ccc(Cl)cc2)c2c(Cl)cc(-n3ncc(=O)[nH]c3=O)cc2Cl)o1` (racemic) [Compound 203] is lower in “% inh. (percentage inhibition of IL-5 production)” value: 92% for the first, 82% for the second.

Compared with `O=C(c1sc(C(c2ccc(Cl)cc2)c2c(Cl)cc(-n3ncc(=O)[nH]c3=O)cc2Cl)nc1-c1ccccc1)N1CCOCC1` (racemic) [Comp 306], `O=c1cnn(-c2cc(Cl)c(C(c3ccc(Cl)cc3)c3nc(-c4ccccc4)c(CO)s3)c(Cl)c2)c(=O)[nH]1` (racemic) [Comp 282] is higher in “% inh. (percentage inhibition of IL-5 production)” value: 92% for the first, 93% for the second.

Compared with `Cl.O=c1cnn(-c2ccc(C(NCCc3ccco3)c3ccc(Cl)cc3)c(Cl)c2)c(=O)[nH]1` (racemic) [Compound 43], `O=C(NC(c1ccc(Cl)cc1)c1ccc(-n2ncc(=O)[nH]c2=O)cc1Cl)c1ccccc1` (racemic) [Compound 47, (±)-N-[[2-chloro-4-(4,5-dihydro-3,5-dioxo-1,2,4-triazin-3(2H)-yl)phenyl](4-chlorophenyl)methyl]benzamide] is lower in “% inh. (percentage inhibition of IL-5 production)” value: 37% for the first, 33% for the second.

Going from `Cc1nnc(SC(c2ccc(Cl)cc2)c2ccc(-n3ncc(=O)[nH]c3=O)cc2Cl)[nH]c1=O` (stereo not shown) [Compound 85] to `Cc1nnc(C(c2ccc(Cl)cc2)c2ccc(-n3ncc(=O)[nH]c3=O)cc2Cl)o1` (racemic) [Comp 102], the “% inh. (percentage inhibition of IL-5 production)” value falls from 38% to 14%.

First: COc1cc(-n2ncc(=O)[nH]c2=O)ccc1C(C)(c1ccc(Cl)c(C(F)(F)F)c1)c1nc(-c2ccccc2)cs1 (racemic) [Comp 255]
Second: Cc1cc(C(C)(c2ccc(Cl)c(C(F)(F)F)c2)c2nc(-c3ccccc3)cs2)c(Cl)cc1-n1ncc(=O)[nH]c1=O (racemic) [Comp 235]
The “% inh. (percentage inhibition of IL-5 production)” value of the first is lower: 67% for the first, 79% for the second.

Compared with `CCOC(=O)C(=O)Nc1cccc(-c2nnc(C(c3ccc(Cl)cc3)c3c(Cl)cc(-n4ncc(=O)[nH]c4=O)cc3Cl)o2)c1.O` (racemic) [Compound 219], `O=c1cnn(-c2cc(Cl)c(C(c3ccc(Cl)cc3)c3nnc(-c4cccc(Cl)c4)o3)c(Cl)c2)c(=O)[nH]1` (racemic) [Compound 157] is higher in “% inh. (percentage inhibition of IL-5 production)” value: 8% for the first, 85% for the second.

Going from `COCCNC(=O)c1sc(C(c2ccc(Cl)cc2)c2c(Cl)cc(-n3ncc(=O)[nH]c3=O)cc2Cl)nc1-c1ccccc1` (racemic) [Comp 307] to `CCc1sc(C(c2ccc(Cl)cc2)c2c(Cl)cc(-n3ncc(=O)[nH]c3=O)cc2Cl)nc1-c1ccccc1` (racemic) [Comp 224], the “% inh. (percentage inhibition of IL-5 production)” value rises from 78% to 95%.

Going from `COc1ccc(-c2ccnc(SC(c3ccc(Cl)cc3)c3ccc(-n4ncc(=O)[nH]c4=O)cc3Cl)n2)cc1` (racemic) [Compound 79] to `O=c1cnn(-c2ccc(C(Sc3nccc(-c4cccs4)n3)c3ccc(Cl)cc3)c(Cl)c2)c(=O)[nH]1` (stereo not shown) [Compound 84], the “% inh. (percentage inhibition of IL-5 production)” value falls from 74% to 73%.

First: Cc1nc(-c2ccccc2Cl)c(C(c2ccc(Cl)cc2)c2ccc(-n3ncc(=O)[nH]c3=O)cc2Cl)s1 (racemic) [Compound 139]
Second: Cc1nc(-c2ccccc2Cl)sc1C(c1ccc(Cl)cc1)c1ccc(-n2ncc(=O)[nH]c2=O)cc1Cl (racemic) [Compound 154]
The “% inh. (percentage inhibition of IL-5 production)” value of the first is higher: 60% for the first, 42% for the second.

Going from `Cc1nc(-c2ccccc2)c(C(c2ccc(Cl)cc2)c2c(Cl)cc(-n3ncc(=O)[nH]c3=O)cc2Cl)s1` (racemic) [Compound 136] to `Cn1cc(-c2ccccc2)nc1C(c1ccc(Cl)cc1)c1c(Cl)cc(-n2ncc(=O)[nH]c2=O)cc1Cl` (stereo not shown) [Comp 425], the “% inh. (percentage inhibition of IL-5 production)” value falls from 93% to 70%.

Going from `O=c1cnn(-c2cc(Cl)c(C(Sc3nccc(N4CCOCC4)n3)c3ccc(Cl)cc3)c(Cl)c2)c(=O)[nH]1` (racemic) [Compound 349] to `Nc1ccnc(SC(c2ccc(Cl)cc2)c2c(Cl)cc(-n3ncc(=O)[nH]c3=O)cc2Cl)n1` (racemic) [Compound 348], the “% inh. (percentage inhibition of IL-5 production)” value falls from 87% to 83%.

Compared with `Cn1ccnc1C(c1ccc(Cl)cc1)c1c(Cl)cc(-n2ncc(=O)[nH]c2=O)cc1Cl` (racemic) [Comp 109], `Cc1ccccc1-c1nnc(C(c2ccc(Cl)cc2)c2c(Cl)cc(-n3ncc(=O)[nH]c3=O)cc2Cl)o1` (racemic) [Compound 188] is higher in “% inh. (percentage inhibition of IL-5 production)” value: 35% for the first, 95% for the second.

First: O=c1cnn(-c2cc(Cl)c(C(Sc3nc4cccnc4s3)c3ccc(Cl)c(C(F)(F)F)c3)c(Cl)c2)c(=O)[nH]1 (stereo not shown) [Compound 382]
Second: Cc1sc(SC(c2ccc(Cl)c(C(F)(F)F)c2)c2c(Cl)cc(-n3ncc(=O)[nH]c3=O)cc2Cl)nc1-c1ccccc1 (stereo not shown) [Compound 392]
The “% inh. (percentage inhibition of IL-5 production)” value of the first is higher: 95% for the first, 87% for the second.

Going from `Nc1ccc(-c2nnc(C(c3ccc(Cl)cc3)c3c(Cl)cc(-n4ncc(=O)[nH]c4=O)cc3Cl)o2)cc1` (racemic) [Compound 184] to `O=c1cnn(-c2cc(Cl)c(C(c3ccc(Cl)cc3)c3nnc(-c4ccccc4)o3)c(Cl)c2)c(=O)[nH]1` (stereo not shown) [Compound 189, (A)-2-[3,5-dichloro-4-[(4-chlorophenyl)(5-phenyl-1,3,4-oxadizol-2-yl)methyl]phenyl]-1,2,4-triazine-3,5(2H,4H)-dione], the “% inh. (percentage inhibition of IL-5 production)” value falls from 83% to 82%.

Going from `CN1CCN(c2ccc(-c3nnc(C(c4ccc(Cl)cc4)c4c(Cl)cc(-n5ncc(=O)[nH]c5=O)cc4Cl)o3)cc2)CC1` (racemic) [Compound 199] to `CCOC(=O)c1sc(C(c2ccc(Cl)cc2)c2c(Cl)cc(-n3ncc(=O)[nH]c3=O)cc2Cl)nc1-c1ccccc1F` (racemic) [Comp 285], the “% inh. (percentage inhibition of IL-5 production)” value rises from 43% to 89%.

First: CCOC(=O)Cc1sc(C(c2ccc(Cl)cc2)c2c(Cl)cc(-n3ncc(=O)[nH]c3=O)cc2Cl)nc1-c1ccccc1Cl (racemic) [Comp 293]
Second: CN(C)CCN(C)Cc1sc(C(c2ccc(Cl)cc2)c2c(Cl)cc(-n3ncc(=O)[nH]c3=O)cc2Cl)nc1-c1ccccc1 (racemic) [Comp 311]
The “% inh. (percentage inhibition of IL-5 production)” value of the first is lower: 59% for the first, 64% for the second.

Compared with `O=c1cnn(-c2ccc(C(c3ccc(Cl)cc3)c3sc(-c4ccccc4Cl)nc3-c3ccccc3)c(Cl)c2)c(=O)[nH]1` (racemic) [Compound 150], `Cc1sc(NC(c2ccc(Cl)cc2)c2ccc(-n3ncc(=O)[nH]c3=O)cc2Cl)nc1-c1ccccc1` (racemic) [Compound 412] is lower in “% inh. (percentage inhibition of IL-5 production)” value: 48% for the first, 16% for the second.

With `O=C(NCc1sc(C(c2ccc(Cl)cc2)c2c(Cl)cc(-n3ncc(=O)[nH]c3=O)cc2Cl)nc1-c1ccccc1)Nc1ccc(Cl)cc1` (racemic) [Comp 333] the “% inh. (percentage inhibition of IL-5 production)” value was 61%.

Same assay, conditions: test dose 1×10^−6 M, 48 hours, read-out: % inh. (percentage inhibition of IL-5 production)

Going from `O=c1cnn(-c2cc(Cl)c(C(Sc3nccc(N4CCNCC4)n3)c3ccc(Cl)cc3)c(Cl)c2)c(=O)[nH]1` (racemic) [Compound 360, (±)-2-[3,5-dichloro-4-[(4-chlorophenyl)[[4-(1-piperazinyl)-2-pyrimidinyl]thio]methyl]phenyl]-1,2,4-triazine-3,5(2H,4H)-dione monohydrate] to `O=c1cnn(-c2ccc(C(Sc3ncc[nH]3)c3ccc(Cl)cc3)c(Cl)c2)c(=O)[nH]1` (racemic) [Compound 94, (±)-2-[3-chloro-4-[(4-chlorophenyl)(1H-imidazol-2-ylthio)methyl]phenyl]-1,2,4-triazine-3,5(2H,4H)-dione], the inhibition at 1 µM falls from 84% to 18%.

Compared with `O=c1cnn(-c2ccc(C(Sc3ccccn3)c3ccc(Cl)cc3)c(Cl)c2)c(=O)[nH]1` (racemic) [Compound 93, (±)-2-[3-chloro-4-[(4-chlorophenyl)(2-pyridinyl-thio)methyl]phenyl]-1,2,4-triazine-3,5(2H,4H)-dione], `CC(c1ccc(Cl)cc1)(c1nc2ccccc2o1)c1ccc(-n2ncc(=O)[nH]c2=O)cc1Cl` (racemic) [Compound 132, (±)-2-[3-chloro-4-[1-(4-chlorophenyl)-1-(2-benzoxazolyl)ethyl]phenyl]-1,2,4-triazine-3,5(2H,4H)-dione] is lower in inhibition at 1 µM: 86% for the first, 55% for the second.
